Data from patent US8071786B2, “Indole compounds useful as serotonin selective agents” (Galenea Corp., priority 2005, dated 2011).
Marks after values point to notes of the source that are not given here.

Experiments:
[1] = Appetite suppression in mice, chronic assay (body weight); format: in vivo
Procedure: Mice were injected i.p. at intervals of 2 or 3 days and weighed repeatedly (6 or 7 total injections). Controls were injected with saline. Weighing and injection were carried out between 11 AM and 1 PM.

[2] = tested on: itch-associated scratching induced by serotonin; experiment: Animal model for OCD: serotonin-induced scratching; format: in vivo, male Swiss-Webster mice; settings: for Number of Scratches as Percentage of Control: inducer Serotonin
Procedure: The 5-HT action is at least partly mediated by 5-HT2 receptors in the skin, as shown by blocking with specific antagonists (Yamaguchi, T., Nagasawa, T., Satoh, M., Kuraishi, Y. “Itch-associated Response Induced by Intradermal Serotonin Through 5-HT2 Receptors in Mice” Neurosci. Res. 1999, 35, 77). The effect of test compounds on itch-associated scratching in the mice may indicate their action on 5-HT receptors, and a study was carried out as an animal model for OCD. The subjects were male Swiss-Webster mice, 4-6 weeks old, weighing 25-45 g. Mice were housed 5 per cage, given free access to standard mouse food and water except during experiments, and maintained in a temperature-controlled room (70° F.). Serotonin and all test drugs were made up with ascorbic acid to protect against oxidation. Two mice, one a control, the other experimental, were tested each time. Each mouse was separately placed into a plexiglas box.
Mice were injected subcutaneously between the shoulder blades with either 0.1 ml of serotonin, 0.4 mg per ml in 0.15 M saline plus ascorbic acid, 1 mg/ml, or compound 48-80 (the copolymer product of N-methyl-p-methoxyphenethylamine with formaldehyde), 1.0 mg/ml in saline plus ascorbic acid. Test compounds were injected i.p. 5 minutes before the inducer. The cumulative number of scratches with a hind leg was recorded at 5 minute intervals for 30 minutes. One saline injected control and one test animal were tested together in each assay.

[3] = Appetite suppression in mice, acute assay (food consumption); format: in vivo; settings: for Mean food consumption 60 min. after injection: g (±SEM) Compound / Mean food consumption 90 min. after injection: g (±SEM) Compound: mice deprived of food 18 hours
Procedure: Mice were deprived of food, but not water, for 18 hours. They were then injected i.p. with test compounds dissolved in 0.9% NaCl containing 1 mg per ml ascorbic acid for protection against oxidation. Each mouse was placed in an individual cage for 30 minutes and then presented with a small petri dish containing a gel made from gelatin, powdered milk and sucrose. The dish was weighed at zero time and at 15-minute intervals for the next hour in order to quantitate food consumption. Controls were injected with saline-ascorbic acid; ±fenfluramine was used as an active control. Control consumption generally ranged from 1.5 to 2.0 grams.

5-HT2A = 5-HT2A (Homo sapiens, UniProt P28223); experiment: Phosphoinositide hydrolysis functional assay; format: cell-based; parameters: expressed in transfected cells; settings: for Functional Assay (EC50) 5-HT2A / EC50: activation of phosphoinositide hydrolysis, stably expressed receptor; for percent Vmax relative to serotonin at 100%, 5-HT2A: value in brackets
5-HT2A, sequence (P28223 whole entry): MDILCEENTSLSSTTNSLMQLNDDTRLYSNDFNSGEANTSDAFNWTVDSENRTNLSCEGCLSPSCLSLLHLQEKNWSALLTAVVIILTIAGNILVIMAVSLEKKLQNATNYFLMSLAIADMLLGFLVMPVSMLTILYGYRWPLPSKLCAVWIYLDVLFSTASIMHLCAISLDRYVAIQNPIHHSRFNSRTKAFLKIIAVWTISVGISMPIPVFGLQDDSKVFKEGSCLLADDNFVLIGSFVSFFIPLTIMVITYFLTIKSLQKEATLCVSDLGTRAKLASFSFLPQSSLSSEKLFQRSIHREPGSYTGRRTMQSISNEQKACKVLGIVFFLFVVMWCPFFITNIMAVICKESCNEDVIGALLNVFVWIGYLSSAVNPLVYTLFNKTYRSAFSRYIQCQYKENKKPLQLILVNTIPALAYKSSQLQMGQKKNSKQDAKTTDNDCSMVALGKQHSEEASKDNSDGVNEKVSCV
Procedure: (§1) Phosphoinositide hydrolysis assays were performed with stably (5-HT2A, 5-HT2C) or transiently (5-HT2B) expressed receptors plated in 24-well culture plates. Transfected cells were loaded with […] overnight in inositol-free DMEM without serum. The next day, phosphate accumulation assays were performed in a modified Krebs-bicarbonate buffer. Kact (nmol/L) and percent Vmax (relative to 5-HT) values were calculated (Roth, B. L., Shoham, M., Choudhary, M., Khan, N. “Identification of Conserved Aromatic Residues Essential for Agonist Binding and Second Messenger Production at 5-Hydroxytryptamine 2A Receptors” Mol. Pharmacol. 1997, 52, 259; Roth, B. L., Choudhary, M., Khan, N., Uluer, A. “High-affinity Agonist Binding is not Sufficient for Agonist Efficacy at 5-Hydroxytryptamine 2A Receptors: Evidence in Favor of a Modified Ternary Complex Model” J. Pharmacol. Exp. Ther. 1997, 280, 576).
(§2) Functional Assay (EC50) in nM. Data represent mean EC50 values for activation of phospho-inositide hydrolysis in cells expressing human 5-HT2A, 5-HT2B or 5-HT2C-INI receptors, relative to serotonin at 100%. When the standard deviation is given, N≧3.

5-HT2B = 5-HT2B (Homo sapiens, UniProt P41595); experiment: Phosphoinositide hydrolysis functional assay; format: cell-based; parameters: expressed in transfected cells; settings: activation of phosphoinositide hydrolysis, transiently expressed receptor
5-HT2B, sequence (P41595 whole entry): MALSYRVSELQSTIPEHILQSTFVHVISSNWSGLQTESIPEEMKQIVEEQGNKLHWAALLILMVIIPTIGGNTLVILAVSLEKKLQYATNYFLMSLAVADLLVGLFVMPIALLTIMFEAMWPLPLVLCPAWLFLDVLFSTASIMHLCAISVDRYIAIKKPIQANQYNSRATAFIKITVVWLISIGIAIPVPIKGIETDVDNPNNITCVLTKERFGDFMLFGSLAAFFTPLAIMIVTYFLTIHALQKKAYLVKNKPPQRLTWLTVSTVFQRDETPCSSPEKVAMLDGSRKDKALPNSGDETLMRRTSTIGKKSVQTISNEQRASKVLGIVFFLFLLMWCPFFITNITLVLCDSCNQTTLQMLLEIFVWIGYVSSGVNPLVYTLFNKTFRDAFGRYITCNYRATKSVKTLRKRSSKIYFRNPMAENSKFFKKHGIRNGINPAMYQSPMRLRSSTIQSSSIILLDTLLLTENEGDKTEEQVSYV
Procedure: as §1, §2

human 5-HT2C-INI = biological target: T1, human 5-HT2C-INI (Homo sapiens, UniProt P28335); experiment: Phosphoinositide hydrolysis functional assay; format: cell-based; settings: for Functional Assay (EC50) 5-HT2C / EC50: activation of phosphoinositide hydrolysis, stably expressed receptor; for Emax: value in brackets, read-out: percent Vmax relative to serotonin at 100%, 5-HT2C (converted)
T1 construct: expressed in transfected cells
T1 sequence (P28335 33-458): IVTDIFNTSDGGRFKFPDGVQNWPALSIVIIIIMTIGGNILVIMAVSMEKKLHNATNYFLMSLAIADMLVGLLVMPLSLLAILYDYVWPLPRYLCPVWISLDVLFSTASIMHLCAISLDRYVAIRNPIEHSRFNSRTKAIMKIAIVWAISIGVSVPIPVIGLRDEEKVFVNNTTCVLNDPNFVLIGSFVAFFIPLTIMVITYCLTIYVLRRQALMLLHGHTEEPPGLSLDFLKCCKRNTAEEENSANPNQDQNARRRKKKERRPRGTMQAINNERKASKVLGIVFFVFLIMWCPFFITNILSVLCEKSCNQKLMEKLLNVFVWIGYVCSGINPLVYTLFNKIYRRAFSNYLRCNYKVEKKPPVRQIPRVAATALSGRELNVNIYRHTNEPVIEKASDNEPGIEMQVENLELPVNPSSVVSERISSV
Procedure: as §1, §2

[4] = dose cell empty (10 mg/kg printed on the Saline line above), i.p. at intervals of 2 or 3 days
[5] = 10 mg/kg i.p. 5 minutes before inducer Serotonin
[6] = 20 mg/kg i.p. at intervals of 2 or 3 days

SMILES: CN(C)CCc1cn(S(C)(=O)=O)c2cc(F)cc(O)c12
- melting point: 184 to 186 °C

SMILES: CN(C)CCc1cn(S(C)(=O)=O)c2c(F)ccc(O)c12
- melting point: 181 to 183 °C

SMILES: CC(C)n1cc(CCN(C)C)c2c(O)ccc(F)c21
- melting point: 108 to 110 °C

SMILES: CCNC(C)Cc1cccc(C(F)(F)F)c1 (centres unmarked) [+/−Fenfluramine, Fenfluramine, reference compound]
- Day 7 % Δ from starting weight [1, 4]: −9.54* %
- Day 7 Difference within same group [1, 4]: -4.74 g
- Day 14 % Δ from starting weight [1, 4]: −10.7* %
- Day 14 Difference within same group [1, 4]: -5.32 g
- Average Number of Scratches 30 min. after injection [2, 5]: 12.8*
- Number of Scratches as Percentage of Control ([2]; 10 mg/kg i.p.): 6.5%
- % of Control (food consumption 60 min. after injection) ([3]; 3 mg/kg i.p.): 95%
- % of Control (food consumption 90 min. after injection) ([3]; 3 mg/kg i.p.): 95%
- Mean food consumption 60 min. after injection: g (±SEM) Compound ([3]; 3 mg/kg i.p.): 1.2 (.12) g
- Mean food consumption 90 min. after injection: g (±SEM) Compound ([3]; 3 mg/kg i.p.): 1.60 (.14) g
- % of Control (food consumption 60 min. after injection) ([3]; 5 mg/kg i.p.): 61%
- % of Control (food consumption 90 min. after injection) ([3]; 5 mg/kg i.p.): 67%
- Mean food consumption 60 min. after injection: g (±SEM) Compound ([3]; 5 mg/kg i.p.): 0.90 (.04)* g
- Mean food consumption 90 min. after injection: g (±SEM) Compound ([3]; 5 mg/kg i.p.): 1.18 (.17)* g
- % of Control (food consumption 60 min. after injection) ([3]; 10 mg/kg i.p.): 30%
- % of Control (food consumption 90 min. after injection) ([3]; 10 mg/kg i.p.): 35%
- Mean food consumption 60 min. after injection: g (±SEM) Compound ([3]; 10 mg/kg i.p.): 0.41 (.11)* g
- Mean food consumption 90 min. after injection: g (±SEM) Compound ([3]; 10 mg/kg i.p.): 0.56 (.13)* g

SMILES: CCCCn1cc(CCN(C)C)c2c(O)ccc(F)c21 [Compound O-4205, 3-(2-Dimethylaminoethyl)-7-fluoro-1-butyl-1H-indol-4-ol]
- melting point: 87 to 90 °C
- Functional Assay (EC50) 5-HT2A (5-HT2A): Inactive
- Functional Assay (EC50) 5-HT2B (5-HT2B): Inactive
- Functional Assay (EC50) 5-HT2C (human 5-HT2C-INI): inactive

SMILES: CN(C)CCc1cn(C)c2cc(F)cc(O)c12 [Compound O-4244, 3-(2-Dimethylaminoethyl)-6-fluoro-1-methyl-1H-indol-4-ol]
- melting point: 132 to 134 °C
- EC50 (5-HT2A): 0.55 nM
- percent Vmax relative to serotonin at 100%, 5-HT2A (5-HT2A): 61%
- Functional Assay (EC50) 5-HT2B (5-HT2B): Inactive
- EC50 (human 5-HT2C-INI): 0.66 nM
- Emax (human 5-HT2C-INI): 75%

SMILES: CCn1cc(CCN(C)C)c2c(O)cc(F)cc21 [Compound O-4284, 3-(2-Dimethylaminoethyl)-6-fluoro-1-ethyl-1H-indol-4-ol]
- EC50 (5-HT2A): 2.9 nM
- percent Vmax relative to serotonin at 100%, 5-HT2A (5-HT2A): 73%
- Functional Assay (EC50) 5-HT2B (5-HT2B): Inactive
- EC50 (human 5-HT2C-INI): 0.54 nM
- Emax (human 5-HT2C-INI): 73%

SMILES: CCCn1cc(CCN(C)C)c2c(O)cc(F)cc21 [Compound O-4285, 3-(2-Dimethylaminoethyl)-6-fluoro-1-propyl-1H-indol-4-ol]
- melting point: 104 to 106 °C
- EC50 (5-HT2A): 166 nM
- percent Vmax relative to serotonin at 100%, 5-HT2A (5-HT2A): 63%
- Functional Assay (EC50) 5-HT2B (5-HT2B): Inactive
- EC50 (human 5-HT2C-INI): 131 nM
- Emax (human 5-HT2C-INI): ~75%

SMILES: CCCCn1cc(CCN(C)C)c2c(O)cc(F)cc21 [Compound O-4286, 3-(2-Dimethylaminoethyl)-6-fluoro-1-butyl-1H-indol-4-ol]
- melting point: 92 to 95 °C
- Functional Assay (EC50) 5-HT2A (5-HT2A): Inactive
- Functional Assay (EC50) 5-HT2B (5-HT2B): Inactive
- Functional Assay (EC50) 5-HT2C (human 5-HT2C-INI): inactive

SMILES: CN(C)CCc1cn(CC2CC2)c2cc(F)cc(O)c12 [Compound O-4287, 3-(2-Dimethylaminoethyl)-6-fluoro-1-cyclopropylmethyl-1H-indol-4-ol]
- melting point: 110 to 112 °C
- EC50 (5-HT2A): 3740 nM
- percent Vmax relative to serotonin at 100%, 5-HT2A (5-HT2A): 63%
- Functional Assay (EC50) 5-HT2B (5-HT2B): Inactive
- EC50 (human 5-HT2C-INI): 1160 nM
- Emax (human 5-HT2C-INI): 41%

SMILES: CCCn1cc(CCN(C)C)c2c(OP(=O)(O)O)ccc(F)c21 [Compound O-4309, 3-(2-Dimethylaminoethyl)-7-fluoro-1-propyl-1H-indol-4-phosphate]
- Day 7 % Δ from starting weight [1, 6]: −2.3* %
- Day 7 Difference within same group [1, 6]: -1.20 g
- Day 14 % Δ from starting weight [1, 6]: −6.03* %
- Day 14 Difference within same group [1, 6]: -3.20 g
- Average Number of Scratches 30 min. after injection ([2]; 2.5 mg/kg i.p. 5 minutes before inducer Serotonin): 181.4
- Number of Scratches as Percentage of Control ([2]; 2.5 mg/kg i.p.): 97.4%
- Average Number of Scratches 30 min. after injection ([2]; 5 mg/kg i.p. 5 minutes before inducer Serotonin): 89.6
- Number of Scratches as Percentage of Control ([2]; 5 mg/kg i.p.): 17.8%
- Average Number of Scratches 30 min. after injection [2, 5]: 8.8
- Number of Scratches as Percentage of Control ([2]; 10 mg/kg i.p.): 1.6%
- % of Control (food consumption 60 min. after injection) ([3]; 10 mg/kg i.p.): 41%
- % of Control (food consumption 90 min. after injection) ([3]; 10 mg/kg i.p.): 64%
- Mean food consumption 60 min. after injection: g (±SEM) Compound ([3]; 10 mg/kg i.p.): 0.28 (.06)* g
- Mean food consumption 90 min. after injection: g (±SEM) Compound ([3]; 10 mg/kg i.p.): 0.68 (0.1)* g
- % of Control (food consumption 60 min. after injection) ([3]; 20 mg/kg i.p.): 9%
- % of Control (food consumption 90 min. after injection) ([3]; 20 mg/kg i.p.): 18%
- Mean food consumption 60 min. after injection: g (±SEM) Compound ([3]; 20 mg/kg i.p.): .07 (.02)* g
- Mean food consumption 90 min. after injection: g (±SEM) Compound ([3]; 20 mg/kg i.p.): 0.22 (.05)* g

SMILES: CC(C)n1cc(CCN(C)C)c2c(O)cc(F)cc21 [Compound O-4310, 3-(2-Dimethylaminoethyl)-6-fluoro-1-isopropyl-1H-indol-4-ol]
- EC50 (5-HT2A): 5 nM
- percent Vmax relative to serotonin at 100%, 5-HT2A (5-HT2A): 89%
- Functional Assay (EC50) 5-HT2B (5-HT2B): Inactive
- EC50 (human 5-HT2C-INI): 592 nM
- Emax (human 5-HT2C-INI): ~50%

SMILES: CCS(=O)(=O)n1cc(CCN(C)C)c2c(O)cc(F)cc21 [Compound O-4312, 3-(2-Dimethylaminoethyl)-6-fluoro-1-ethylsulfonyl-1H-indol-4-ol]
- Functional Assay (EC50) 5-HT2A (5-HT2A): inactive
- Functional Assay (EC50) 5-HT2B (5-HT2B): Inactive
- Functional Assay (EC50) 5-HT2C (human 5-HT2C-INI): inactive

SMILES: CNCCC(Oc1ccc(C(F)(F)F)cc1)c1ccccc1 (centres unmarked) [Fluoxetine, reference compound]
- Average Number of Scratches 30 min. after injection [2, 5]: 15
- Number of Scratches as Percentage of Control ([2]; 10 mg/kg i.p.): 4.1%
